According to patent publication US7528250B2, “Chroman derivatives and uses thereof” (Roche Palo Alto LLC, priority 2004, dated 2009):
Structures can show the parent of a compound that is named as a salt.

Assays:
[1] = target: T1, recombinant human 5-HT2A receptor (Homo sapiens, UniProt P28223); test: Radioligand binding, [3H]Ketanserin competition, membranes of CHO-K1 cells expressing 5-HT2A; conditions: CHO-K1 cell membranes, pH 7.4, 32° C., 60 min, read-out: pKi for 5-HT2A (converted)
T1 construct: expressed in transfected cells; membranes
T1 sequence (P28223 whole entry): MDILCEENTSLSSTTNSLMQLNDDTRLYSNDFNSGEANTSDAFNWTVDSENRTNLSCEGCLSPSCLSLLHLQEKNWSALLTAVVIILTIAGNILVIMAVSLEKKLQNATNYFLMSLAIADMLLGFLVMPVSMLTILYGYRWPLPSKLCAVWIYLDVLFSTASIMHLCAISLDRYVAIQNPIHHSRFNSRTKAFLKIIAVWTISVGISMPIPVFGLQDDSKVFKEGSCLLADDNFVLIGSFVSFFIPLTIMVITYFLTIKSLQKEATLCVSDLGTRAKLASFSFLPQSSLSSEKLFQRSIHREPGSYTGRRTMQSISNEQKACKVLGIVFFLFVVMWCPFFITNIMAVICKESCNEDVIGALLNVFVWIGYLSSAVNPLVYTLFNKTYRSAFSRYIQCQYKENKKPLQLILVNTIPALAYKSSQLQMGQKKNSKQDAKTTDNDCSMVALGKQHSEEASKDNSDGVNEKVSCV
Procedure: (§1) The binding activity of compounds of this invention in vitro was determined as follows. Duplicate determinations of 5-HT6 ligand affinity were made by competing for binding of [^3H]LSD in cell membranes derived from HEK293 cells stably expressing recombinant human 5-HT6 receptor. Duplicate determinations of 5-HT2A ligand affinity were made by competing for binding of [^3H]Ketanserin (3-(2-(4-(4-fluorobenzoyl)piperidinol)ethyl)-2,4(1H,3H)-quinazolinedione) in cell membranes derived from CHO-K1 cells stably expressing recombinant human 5-HT2A receptor. Membranes were prepared from HEK 293 cell lines by the method described by Monsma et al., Molecular Pharmacology, Vol. 43 pp. 320-327 (1993), and from CHO-K1 cell lines as described by Bonhaus et al., Br J Pharmacol. June; 115(4):622-8 (1995).
(§2) For estimation of affinity at the 5-HT6 receptor, all determinations were made in assay buffer containing 50 mM Tris-HCl, 10 mM MgSO4, 0.5 mM EDTA, 1 mM ascorbic acid, pH 7.4 at 37° C., in a 250 microliter reaction volume. […]
(§3) Assay tubes containing [^3H] […] LSD or [^3H]Ketanserin were determined as radioactive counts per minute using Packard TopCount.
(§4) Displacement of [^3H]LSD or [^3H]Ketanserin from the binding sites was quantified by fitting concentration-binding data to a 4-parameter logistic equation: […]

[2] = target: T2, recombinant human 5-HT6 receptor (Homo sapiens, UniProt P50406); test: Radioligand binding, [3H]LSD competition, membranes of HEK293 cells expressing 5-HT6; conditions: HEK293 cell membranes, pH 7.4, 37° C., 75 min, read-out: pKi for 5-HT6 (converted)
T2 construct: expressed in transfected cells; membranes
T2 sequence (P50406 whole entry): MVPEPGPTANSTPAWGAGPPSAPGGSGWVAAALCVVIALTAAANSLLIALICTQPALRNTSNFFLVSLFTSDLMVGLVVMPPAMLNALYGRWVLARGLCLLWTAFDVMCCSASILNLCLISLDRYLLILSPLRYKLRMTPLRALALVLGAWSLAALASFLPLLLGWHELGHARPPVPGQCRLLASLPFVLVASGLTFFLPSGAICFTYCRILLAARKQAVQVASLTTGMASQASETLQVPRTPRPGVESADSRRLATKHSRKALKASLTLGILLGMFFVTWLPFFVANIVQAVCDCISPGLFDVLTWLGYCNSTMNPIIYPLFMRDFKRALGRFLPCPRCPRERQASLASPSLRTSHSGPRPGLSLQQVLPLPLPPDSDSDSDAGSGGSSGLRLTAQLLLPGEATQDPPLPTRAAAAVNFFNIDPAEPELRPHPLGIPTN
Procedure: as §1, §2, §3, §4

Row | Compound | Ki [1] [nM] | Ki [2] [nM] | melting point [°C]
1 | O=S(=O)(c1ccccc1)c1ccc2c(c1)OCCC2N1CCNCC1 (stereo not drawn) [Compound 1, 1-(7-Benzenesulfonyl-chroman-4-yl)-piperazine] | ~46.8 | ~0.417 | –
2 | O=S(=O)(c1ccccc1)c1ccc2c(c1)OCCC2N1CCNCC1 (stereo not drawn) (as salt: HCl) [Compound 1, 1-(7-Benzenesulfonyl-chroman-4-yl)-piperazine] | – | – | 243 to 249
